Measured values reported in US8778941B2, “TRPM8 antagonists and their use in treatments” (AMGEN Inc., priority 2011, dated 2014).

How the values were obtained:
male C57BL/6 mice = assay: Inhibition of icilin induced jumping in mice; format: in vivo; details: given 1 hour before icilin (i.p. 20 mg/kg), jumps counted 10 minutes post-icilin
Protocol: Icilin Biochemical Challenge Models
Inhibition of Icilin Induced Jumping in Mice
Example compounds at doses ranging from 0.01 to 10 mg/kg were administered to male C57BL/6 mice (18-25 g, Taconic, n=10/treatment) 1 hour before icilin to assess the ability to block the spontaneous jumps induced by icilin (i.p. suspended in 100% PEG400 at 20 mg/kg, 5 mL/kg). The total number of jumps was recorded during the 10 minutes post-icilin administration based on the number of photocell beam breaks from the vertical array of open field boxes (Kinder Scientific) while movement of the mice was restricted within a clear Plexiglas® cylinder 9.5 cm diameter×30 cm height.

human TRPM8 = target: T1, human TRPM8 (Homo sapiens, UniProt Q7Z2W7); assay: Luminescence readout assay for measuring intracellular calcium (aequorin), hTRPM8 antagonism; format: cell-based; details: CHO cell line expressing human TRPM8 and aequorin; activation by icilin, L-menthol or cold buffer (table does not say which)
T1 construct: expressed in transfected cells; host or cells: Chinese hamster ovary (CHO) cells, T-REx tetracycline-inducible expression system (Invitrogen), co-transfected with pcDNA3.1 jellyfish aequorin
T1 sequence (Q7Z2W7 whole entry): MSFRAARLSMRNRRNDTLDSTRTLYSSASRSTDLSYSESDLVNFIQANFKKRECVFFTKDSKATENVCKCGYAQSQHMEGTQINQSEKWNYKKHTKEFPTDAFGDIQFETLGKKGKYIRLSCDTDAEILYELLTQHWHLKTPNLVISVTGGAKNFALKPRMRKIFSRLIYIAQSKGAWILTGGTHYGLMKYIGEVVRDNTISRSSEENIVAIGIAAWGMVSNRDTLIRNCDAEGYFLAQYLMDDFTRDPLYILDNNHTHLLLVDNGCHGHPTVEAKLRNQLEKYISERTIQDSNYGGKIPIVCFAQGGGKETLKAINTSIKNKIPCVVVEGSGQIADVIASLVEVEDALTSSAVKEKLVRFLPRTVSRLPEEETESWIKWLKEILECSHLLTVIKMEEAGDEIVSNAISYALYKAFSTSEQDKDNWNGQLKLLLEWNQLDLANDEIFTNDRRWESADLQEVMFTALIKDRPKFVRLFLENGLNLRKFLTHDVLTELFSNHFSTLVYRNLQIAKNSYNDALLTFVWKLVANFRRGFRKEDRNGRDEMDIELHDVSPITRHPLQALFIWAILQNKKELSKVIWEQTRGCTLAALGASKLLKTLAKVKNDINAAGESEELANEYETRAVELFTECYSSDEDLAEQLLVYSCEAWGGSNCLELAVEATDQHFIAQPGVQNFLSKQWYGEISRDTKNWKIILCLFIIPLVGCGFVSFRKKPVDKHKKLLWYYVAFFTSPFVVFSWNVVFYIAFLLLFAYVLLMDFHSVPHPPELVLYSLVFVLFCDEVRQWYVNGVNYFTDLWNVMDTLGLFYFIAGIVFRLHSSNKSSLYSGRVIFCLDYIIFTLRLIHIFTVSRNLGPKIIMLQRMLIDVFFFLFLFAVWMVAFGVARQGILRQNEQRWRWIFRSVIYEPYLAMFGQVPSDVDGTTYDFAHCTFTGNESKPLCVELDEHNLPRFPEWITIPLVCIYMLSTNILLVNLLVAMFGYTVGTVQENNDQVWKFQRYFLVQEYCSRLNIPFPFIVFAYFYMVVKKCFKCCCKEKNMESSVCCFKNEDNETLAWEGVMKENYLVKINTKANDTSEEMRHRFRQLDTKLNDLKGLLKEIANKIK

Structure (SMILES) | IC50 (human TRPM8) [nM] | % Inhibition of Mouse Jumping (male C57BL/6 mice; dose 10 mg/kg) [%] | % Inhibition of Mouse Jumping (male C57BL/6 mice; dose 3 mg/kg) [%]
CC1(C)C[C@H]1c1cccnc1[C@@H](NC(=O)Nc1cccnc1)c1ccc(C(F)(F)F)cc1 [Example 61, 1-((S)-(3-((R)-2,2-dimethylcyclopropyl)-pyridin-2-yl)-(4-(trifluoro-methyl)-phenyl)-methyl)-3-(pyridin-3-yl)-urea] | 62 | 90 | 
O=C(Nc1cccnc1)N[C@@H](c1cnc2ccccc2c1)c1ncccc1C(F)(F)F [Example 6, (S)-1-(pyridin-3-yl)-3-(quinolin-3-yl(3-(trifluoro-methyl)-pyridin-2-yl)-methyl)urea] | 259 |  | 
O=C(Nc1ccccc1Cl)N[C@@H](c1ccc(C(F)(F)F)cc1)c1ncccc1C(F)(F)F [Example 181, (S)-1-(2-chlorophenyl)-3-((4-(trifluoro-methyl)phenyl) (3-(trifluoro-methyl)pyridin-2-yl)methyl)urea (2,2,2-trifluoro-acetate)] | 142 |  | 
O=C(Nc1ccc2ncccc2c1)N[C@@H](c1ccc(C(F)(F)F)cc1)c1ncccc1C(F)(F)F [Example 58, (S)-1-(quinolin-6-yl)-3-((4-(trifluoro-methyl)-phenyl)(3-(trifluoro-methyl)-pyridin-2-yl)-methyl)urea] | 562 |  | 
O=C(Nc1cccc(I)c1)N[C@@H](c1ccc(C(F)(F)F)cc1)c1ncccc1C(F)(F)F [Example 124, (S)-1-(3-iodophenyl)-3-((4-(trifluoro-methyl)-phenyl)(3-(trifluoro-methyl)-pyridin-2-yl)-methyl)urea (2,2,2-trifluoro-acetate)] | 708 |  | 
Cc1cc(C)cc(NC(=O)N[C@@H](c2ccc(C(F)(F)F)cc2)c2ncccc2C(F)(F)F)c1 [Example 106, (S)-1-(3,5-dimethylphenyl)-3-((4-(trifluoro-methyl)-phenyl)(3-(trifluoro-methyl)-pyridin-2-yl)-methyl)urea (2,2,2-trifluoro-acetate)] | 494 |  | 

Stronger by IC50 (human TRPM8), values ahead:

IC50 (human TRPM8) [nM] | Structure (SMILES) | % Inhibition of Mouse Jumping (male C57BL/6 mice; dose 10 mg/kg) [%] | % Inhibition of Mouse Jumping (male C57BL/6 mice; dose 3 mg/kg) [%]
39 | C[C@H](NC(=O)N[C@@H](c1ccc(C(F)(F)F)c(F)c1)c1ncccc1C(F)(F)F)C(F)(F)F [Example 151, 1-((S)-(3-fluoro-4-(trifluoro-methyl)-phenyl)(3-(trifluoro-methyl)-pyridin-2-yl)-methyl)-3-((S)-1,1,1-trifluoro-propan-2-yl)-urea (2,2,2-trifluoro-acetate)] |  | 30
37 | CC#Cc1cccnc1[C@@H](NC(=O)Nc1cccnc1)c1ccc(C(F)(F)F)cc1 [Example 51, (S)-1-((3-(prop-1-yn-1-yl)pyridin-2-yl)(4-(trifluoro-methyl)-phenyl)-methyl)-3-(pyridin-3-yl)-urea] | 76 | 
31 | CC(=O)c1cccc(NC(=O)N[C@@H](c2ccc(C(F)(F)F)cc2)c2ncccc2C(F)(F)F)c1 [Example 86, (S)-1-(3-acetylphenyl)-3-((4-(trifluoro-methyl)-phenyl)(3-(trifluoro-methyl)-pyridin-2-yl)-methyl)urea (2,2,2-trifluoro-acetate)] |  | 
23 | O=C(Nc1cccnc1)N[C@@H](c1ccc(C(F)(F)F)c(F)c1)c1ncccc1C(F)(F)F [Example 1, (S)-1-((3-Fluoro-4-(trifluoromethyl)phenyl)(3-(trifluoromethyl)-pyridin-2-yl)methyl)-3-(pyridin-3-yl)urea bis(2,2,2-trifluoroacetate)] | 75 | 
23 | O=C(Nc1cccnc1)N[C@@H](c1ccc(C(F)(F)F)cc1)c1ncccc1C(F)(F)F [Example 44, (S)-1-(pyridin-3-yl)-3-((4-(trifluoro-methyl)-phenyl)(3-(trifluoro-methyl)-pyridin-2-yl)-methyl)urea] | 74 | 
17 | O=C(Nc1cccnc1)N[C@@H](c1ccc(C(F)(F)F)c(F)c1)c1ncccc1F [Example 29, (S)-1-((3-fluoro-4-(trifluoro-methyl)-phenyl)(3-fluoropyridin-2-yl)methyl)-3-(pyridin-3-yl)urea] | 96 | 
